Results as given in ChEMBL document CHEMBL1201862, “PubChem BioAssay data set” (2004).
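Step 1: Grow cells in 96-well plates. Step 2: Expose to compound for 48 hours at 5 concentrations. Step 3: Interpolate endpoints linearly; if unreached, use highest concentration. GI50: concentration for 50% inhibition of growth.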 Active and inactive are the calls of the source. Cut-off read from the data, not from the text of the source: active = GI50 up to about 1.1 µM and inactive = higher.

Experiments:
Experiment in all cases: inhibition of tumour cell growth, NCI panel, 48 h
ACHN = system: ACHN
DMS-114 = system: DMS-114
DU-145 = system: DU-145
HCT-15 = system: HCT-15
HL-60 = system: HL-60
KM12 = system: KM12
LOX IMVI = system: LOX IMVI
M14 = system: M14
M19-MEL = system: M19-MEL
NCI-H522 = system: NCI-H522
NCI/ADR-RES = system: NCI/ADR-RES
OVCAR-3 = system: OVCAR-3
OVCAR-4 = system: OVCAR-4
OVCAR-5 = system: OVCAR-5
SF-539 = system: SF-539
SK-MEL-5 = system: SK-MEL-5
SNB-75 = system: SNB-75
U-251 = system: U-251
UACC-257 = system: UACC-257
UO-31 = system: UO-31

| SMILES | GI50 (ACHN) | GI50 (DMS-114) | GI50 (DU-145) | GI50 (HCT-15) [µM] | GI50 (HL-60) | GI50 (KM12) | GI50 (LOX IMVI) | GI50 (M14) | GI50 (M19-MEL) | GI50 (NCI-H522) | GI50 (NCI/ADR-RES) | GI50 (OVCAR-3) | GI50 (OVCAR-4) | GI50 (OVCAR-5) | GI50 (SF-539) | GI50 (SK-MEL-5) | GI50 (SNB-75) | GI50 (U-251) | GI50 (UACC-257) | GI50 (UO-31) |
| --- | --- | --- | --- | --- | --- | --- | --- | --- | --- | --- | --- | --- | --- | --- | --- | --- | --- | --- | --- | --- |
| N=C(N)NCCCC(NCc1c2ccccc2nc2ccccc12)C(=O)O (stereo unspecified) | 31.5 µM (inactive) | 23.3 µM (inactive) | > 100 µM (inactive) | 29.4 | 11 µM (inactive) | 21.6 µM (inactive) | 26.2 µM (inactive) | 48.1 µM (inactive) | 58.7 µM (inactive) | 22.9 µM (inactive) | 28.5 µM (inactive) | 40.9 µM (inactive) | 29.2 µM (inactive) | > 100 µM (inactive) | 33 µM (inactive) | > 41.8 µM (inactive) | 45.2 µM (inactive) | 47.2 µM (inactive) | 33.7 µM (inactive) | 23.6 µM (inactive) |
| O=C(O)c1cc2c(s1)C(=O)c1sccc1C2=O | 8.43 µM (inactive) | 3.34 µM (inactive) | 2.33 µM (inactive) | 3.93 | 4.18 µM (inactive) | 8.07 µM (inactive) | 1.32 µM (inactive) | 1.43 µM (inactive) | 1.24 µM (inactive) | 3.54 µM (inactive) | 5.4 µM (inactive) | 4.81 µM (inactive) | 6.7 µM (inactive) | 9.91 µM (inactive) | 1.95 µM (inactive) | 1.82 µM (inactive) | 1.82 µM (inactive) | 5.02 µM (inactive) | 3.51 µM (inactive) | 5.98 µM (inactive) |
| COC(=O)C(CC(=O)Nc1ccc(Cl)c(Cl)c1)C(=O)C(=O)Nc1ccc(Cl)c(Cl)c1 (stereo unspecified) | > 100 µM (inactive) | > 100 µM (inactive) | – | > 100 | > 100 µM (inactive) | > 100 µM (inactive) | > 100 µM (inactive) | > 100 µM (inactive) | > 100 µM (inactive) | > 100 µM (inactive) | – | > 100 µM (inactive) | > 100 µM (inactive) | > 100 µM (inactive) | > 100 µM (inactive) | > 100 µM (inactive) | > 100 µM (inactive) | > 100 µM (inactive) | > 100 µM (inactive) | > 100 µM (inactive) |
| C[N+](C)(C)CCOC(=O)/C=C/c1c[nH]cn1 | – | > 500 µM (inactive) | – | > 500 | > 500 µM (inactive) | > 500 µM (inactive) | > 500 µM (inactive) | – | > 500 µM (inactive) | > 500 µM (inactive) | > 500 µM (inactive) | > 500 µM (inactive) | > 500 µM (inactive) | > 356 µM (inactive) | > 500 µM (inactive) | > 500 µM (inactive) | > 500 µM (inactive) | > 500 µM (inactive) | > 500 µM (inactive) | > 500 µM (inactive) |
| NC(=O)C12C3C4C1C1C2C3C41C(N)=O (stereo unspecified) | > 100 µM (inactive) | > 100 µM (inactive) | – | > 100 | > 100 µM (inactive) | > 100 µM (inactive) | > 100 µM (inactive) | > 100 µM (inactive) | > 100 µM (inactive) | > 100 µM (inactive) | – | > 100 µM (inactive) | > 100 µM (inactive) | > 100 µM (inactive) | > 100 µM (inactive) | > 100 µM (inactive) | > 100 µM (inactive) | > 100 µM (inactive) | > 100 µM (inactive) | > 100 µM (inactive) |
| CC(C)CCCCCCCCCCCCC(=O)NCC(=O)NC1C(C)OC(Nc2[nH]cnc3ncnc2-3)C(O)C1O (stereo unspecified) | 0.000468 µM (active) | < 0.0316 µM (active) | 0.0022 µM (active) | < 0.0247 | 0.000746 µM (active) | 0.000341 µM (active) | 0.000262 µM (active) | 0.000487 µM (active) | < 0.01 µM (active) | 0.00273 µM (active) | 0.00221 µM (active) | 0.000173 µM (active) | 0.00098 µM (active) | 0.00123 µM (active) | 0.000931 µM (active) | 0.00289 µM (active) | 0.000535 µM (active) | 0.000425 µM (active) | < 0.01 µM (active) | 0.000381 µM (active) |
| CN(C)CC[N+]1=Nc2cccc3cccc(c23)N1 | 28.1 µM (inactive) | > 64.3 µM (inactive) | – | 62.7 | 24.3 µM (inactive) | > 100 µM (inactive) | 24.1 µM (inactive) | > 100 µM (inactive) | 47.1 µM (inactive) | 33.7 µM (inactive) | – | > 100 µM (inactive) | 49.5 µM (inactive) | > 94 µM (inactive) | 72.9 µM (inactive) | > 52.8 µM (inactive) | > 76.6 µM (inactive) | > 68.5 µM (inactive) | > 100 µM (inactive) | 13.9 µM (inactive) |
